Measurements taken from US7943646B2, “Benzamidine derivative, process for the preparation thereof and pharmaceutical composition comprising same” (Dong Wha Pharmaceutical Co., Ltd., priority 2006, dated 2011).
Where two headings read alike, the source gives them in different places.

Tested on: osteoclast differentiation
Assay: Inhibitory effect on osteoclast differentiation, co-culture of bone marrow cells and osteoblast, TRAP staining
Format: cell-based, mouse
Conditions: Mus musculus, Osteoclast, 168 h, read-out: inhibitory effect on osteoclast differentiation(%)
Procedure: The effect of the benzamidine derivative of the present invention on osteoclast formation and differentiation process was evaluated via co-culture with an osteoblast.
Tibia was aseptically ectomized from male 6 to 8-week-old ddY mice to harvest bone marrow cells by using a syringe (21G, Korea Green Cross). The bone marrow cells were suspended in 5 mL of an α-MEM medium (Gibco BRL Co., added with sodium bicarbonate (2.0 g/L), streptomycin (100 mg/L) and penicillin ([…]), filtered and then sterilized). The harvested cells were centrifuged at 600×g for 5 mins to collect the whole quantity. To remove the red blood cells in the bone marrow cells, 3 mL of Tris HCl (0.83% NH4Cl, pH 7.5) was added and well mixed. After centrifuging above cells, the numbers of the eukaryotic cells in the harvested bone marrow cells were counted and then immediately used for a co-culture system.
The progenitor bone and the parietal bone were aseptically ectomized from 1 to 2-day-old neonate ICR mice, washed with a phosphate butter solution (PBS) and treated with a mixed enzyme solution (of 0.2% collagenase and 0.1% dispase) sequentially (10, 10, 10, 20, 20 and 20 min), and then 3 to 6 groups of the cells which comprise lot of cells having the characteristics of the osteoblast were intensively collected and washed with a medium (a serum-free α-MEM). The washed cells were cultured in the α-MEM medium containing 10% FBS for 2 to 3 days. After subculturing, the collected cells were used for this experiment, and diluted to a concentration of 1×10^6 cells/mL for storage at −70[…].
The benzamidine derivative of the present invention was dissolved in a sterile distilled water or ethanol to dilute to a desired concentration. The final volume of the sample added to the cell culture medium was set at a ratio of 1:1000.
The bone marrow cells prepared in the above 1-1 and the osteoblast were co-cultured for osteoclast differentiation. Both the bone marrow cells (25,000 cells/cm^2) and the osteoblast (10,000 cells/cm^2) were plated in a 96-well plate using α-MEM medium containing FBS, and then cultured with the samples to be tested for 7 days. Differentiation factors, such as dexamethasone (10^−7 M) and vitamin D3 (10^−8 M), were also co-added to the medium from the first day of cultivation. The medium was changed with a fresh media containing a mixture of the samples and the differentiation factors every 2 to 3 days.
TRAP was used as a marker to measure the matured osteoclast in consideration of its characteristics showing a positive reaction to a TRAP staining solution. The TRAP staining solution was prepared in such the manner that 5 mg of naphtol AS-MS phosphate (sigma N-4875) as a substrate, and 25 mg of a coloring agent (Fast Red Violet LB salt) were dissolved in N,N-dimethylformamide (about 0.5 mL). 50 ml of a 0.1 N NaHCO3 buffer solution containing 50 mM tartaric acid (pH 5.0) was added thereto, and the mixture was stored at a refrigerator prior to use as a staining solution.
After culturing the cells for 7 days, the medium was removed from the wells, the cells were once washed with PBS, and then fixed with PBS containing 10% formalin for 2 to 5 min. The cells were fixed again in a mixed solution of ethanol and acetone (1/1) for about 1 min, and dried off. The cells were further treated by the TRAP staining solution for 15 mins and washed with water and dried off. The osteoclasts with 3 or more nuclei showing a TRAP-positive reaction were counted under a microscopic examination. Each of tests was confirmed over at least three times. The inhibitory effect on osteoclast differentiation of each experimental group, relative to negative controls, was expressed as a percentage (%).

[1] = 1 μm, 7 days co-culture, TRAP-positive osteoclasts with 3 or more nuclei, relative to negative controls

SMILES | inhibition at 1 µM [1] [%] | inhibition at 1 µM [%]
Cc1nc(-c2ccc(OCCCCCOc3ccc(C(=N)NO)cc3)cc2)c(CCN2CCCCC2)s1 [Example 3, N-hydroxy-4-(5-{4-[2-methyl-5-(2-piperidin-1-yl-ethyl)-thiazol-4-yl]-phenoxy}-pentyloxy)-benzamidine] | 90.7 | –
Cc1nc(-c2ccc(OCCCCCOc3ccc(C(=N)NO)cc3)cc2)c(CCNCCN2CCOCC2)s1 [Example 4, N-hydroxy-4-[5-(4-{2-methyl-5-[2-(2-morpholin-4-yl-ethylamino)-ethyl]-thiazol-4-yl}-phenoxy)-pentyloxy]-benzamidine] | – | 72.8
Cc1nc(-c2ccc(OCCCCCOc3ccc(C(=N)NO)cc3)cc2)c(CCNCCCn2ccnc2)s1 [Example 5, N-hydroxy-4-[5-(4-{5-[2-(3-imidazol-1-yl-propylamino)-ethyl]-2-methyl-thiazol-4-yl}-phenoxy)-pentyloxy]-benzamidine] | 93.5 | –
Cc1nc(-c2ccc(OCCCCCOc3ccc(C(=N)NO)cc3)cc2)c(CCNC(C)C)s1 [Example 6, N-hydroxy-4-(5-{4-[5-(2-isopropylamino-ethyl)-2-methyl-thiazol-4-yl]-phenoxy}-pentyloxy)-benzamidine] | – | 59
Cc1nc(-c2ccc(OCCCCCOc3ccc(C(=N)NO)cc3)cc2)c(CCNCCCOC(C)C)s1 [Example 7, N-hydroxy-4-[5-(4-{5-[2-(3-isopropoxy-propylamino)-ethyl]-2-methyl-thiazol-4-yl}-phenoxy)-pentyloxy]-benzamidine] | 48 | –
Cc1nc(-c2ccc(OCCCCCOc3ccc(C(=N)NO)cc3)cc2)c(CCn2ccnc2)s1 [Example 9, N-hydroxy-4-(5-{4-[5-(2-imidazol-1-yl-ethyl)-2-methyl-thiazol-4-yl]-phenoxy}-pentyloxy)-benzamidine] | – | 91.7
Cc1nc(-c2ccc(OCCCCCOc3ccc(C(=N)NO)cc3)cc2)c(CCNC2CCCCC2)s1 [Example 10, N-hydroxy-4-(5-{4-[5-(2-cyclohexylamino-ethyl)-2-methyl-thiazol-4-yl]-phenoxy}-pentyloxy)-benzamidine] | 55 | –
CCN(CC)CCc1sc(C)nc1-c1ccc(OCCCCCOc2ccc(C(=N)NO)cc2)cc1 [Example 11, N-hydroxy-4-(5-{4-[5-(2-diethylamino-ethyl)-2-methyl-thiazol-4-yl]-phenoxy}-pentyloxy)-benzamidine] | – | 70
Cc1nc(-c2ccc(OCCCCCOc3ccc(C(=N)NO)cc3)cc2)c(CCN(CCO)CCO)s1 [Example 12, N-hydroxy-4-{5-[4-(5-{2-[bis-(2-hydroxy-ethyl)-amino]-ethyl)-2-methyl-thiazol-4-yl)-phenoxy]-pentyloxy}-benzamidine] | – | 56
Cc1nc(-c2ccc(OCCCCCOc3ccc(C(=N)NO)cc3)cc2)c(CCN(C(C)C)C(C)C)s1 [Example 13, N-hydroxy-4-(5-{4-[5-(2-diisopropylamino-ethyl)-2-methyl-thiazol-4-yl]-phenoxy}-pentyloxy)-benzamidine] | 43 | –
Cc1nc(-c2ccc(OCCCCCOc3ccc(C(=N)NO)cc3)cc2)c(CCN2CC(C)OC(C)C2)s1 (stereo not drawn) [Example 14, N-hydroxy-4-[5-(4-{5-[2-(2,6-dimethyl-morpholin-4-yl)-ethyl]-2-methyl-thiazol-4-yl}-phenoxy)-pentyloxy]-benzamidine] | – | 100
Cc1nc(-c2ccc(OCCCCCOc3ccc(C(=N)NO)cc3)cc2)c(CCN2CCSCC2)s1 [Example 15, N-hydroxy-4-(5-{4-[2-methyl-5-(2-thiomorpholin-4-yl-ethyl)-thiazol-4-yl]-phenoxy}-pentyloxy)-benzamidine] | 99 | –
N=C(NO)c1ccc(OCCCCCOc2ccc(-c3nc(N)sc3CCN3CCOCC3)cc2)cc1 [Example 16, N-hydroxy-4-(5-{4-[2-amino-5-(2-morpholin-4-yl-ethyl)-thiazol-4-yl]-phenoxy}-pentyloxy)-benzamidine] | – | 51
Cc1nc(-c2ccc(OCCCCCOc3ccc(C(=N)NO)cc3)cc2)c(CCNCCN(C)C)s1 [Example 17, N-hydroxy-4-[5-(4-{5-[2-(2-dimethylamino-ethylamino)-ethyl]-2-methyl-thiazol-4-yl}-phenoxy)-pentyloxy]-benzamidine] | – | 40
COCCN(CCOC)CCc1sc(C)nc1-c1ccc(OCCCCCOc2ccc(C(=N)NO)cc2)cc1 [Example 20, N-hydroxy-4-{5-[4-(5-{2-[bis-(2-methoxy-ethyl)-amino]-ethyl}-2-methyl-thiazol-4-yl)-phenoxy]-pentyloxy}-benzamidine] | – | 94
Cc1nc(-c2ccc(OCCCCCOc3ccc(C(=N)NO)cc3)cc2)c(CCNC(C)(C)C)s1 [Example 21, N-hydroxy-4-(5-{4-[5-(2-tert-butylamino-ethyl)-2-methyl-thiazol-4-yl]-phenoxy}-pentyloxy)-benzamidine] | 58 | –
Cc1nc(-c2ccc(OCCCCCOc3ccc(C(=N)NO)cc3)cc2)c(CCNCC(C)C)s1 [Example 22, N-hydroxy-4-(5-{4-[5-(2-isobutylamino-ethyl)-2-methyl-thiazol-4-yl]-phenoxy}-pentyloxy)-benzamidine] | 61 | –
N=C(NO)c1ccc(OCCCCCOc2ccc(-c3nc(-c4cccnc4)sc3CCN3CCOCC3)cc2)cc1 [Example 23, N-hydroxy-4-(5-{4-[5-(2-morpholin-4-yl-ethyl)-2-pyridine-3-yl-thiazol-4-yl]-phenoxy}-pentyloxy)-benzamidine] | 91 | –
CN1CCN(CCc2sc(-c3cccnc3)nc2-c2ccc(OCCCCCOc3ccc(C(=N)NO)cc3)cc2)CC1 [Example 24, N-hydroxy-4-[5-(4-{5-[2-(4-methyl-piperazin-1-yl)-ethyl]-2-pyridine-3-yl-thiazol-4-yl}-phenoxy)-pentyloxy]-benzamidine] | – | 86
N=C(NO)c1ccc(OCCCCCOc2ccc(-c3nc(-c4cccnc4)sc3CCN3CCSCC3)cc2)cc1 [Example 25, N-hydroxy-4-(5-{4-[2-pyridine-3-yl-5-(2-thiomorpholin-4-yl-ethyl)-thiazol-4-yl]-phenoxy}-pentyloxy)-benzamidine] | – | 65
N=C(NO)c1ccc(OCCCCCOc2ccc(-c3nc(-c4cccnc4)sc3CCn3ccnc3)cc2)cc1 [Example 26, N-hydroxy-4-(5-{4-[5-(2-imidazol-1-yl-ethyl)-2-pyridine-3-yl-thiazol-4-yl]-phenoxy}-pentyloxy)-benzamidine] | – | 24
CC(C)c1nc(-c2ccc(OCCCCCOc3ccc(C(=N)NO)cc3)cc2)c(CCN2CCN(C)CC2)s1 [Example 28, N-hydroxy-4-[5-(4-{2-isopropyl-5-[2-(4-methyl-piperazin-1-yl)-ethyl]-thiazol-4-yl}-phenoxy)-pentyloxy]-benzamidine] | 90 | –
CC(C)c1nc(-c2ccc(OCCCCCOc3ccc(C(=N)NO)cc3)cc2)c(CCn2ccnc2)s1 [Example 29, N-hydroxy-4-(5-{4-[5-(2-imidazol-1-yl-ethyl)-2-isopropyl-thiazol-4-yl]-phenoxy}-pentyloxy)-benzamidine] | – | 85
CC(C)c1nc(-c2ccc(OCCCCCOc3ccc(C(=N)NO)cc3)cc2)c(CCNCCN2CCOCC2)s1 [Example 30, N-hydroxy-4-[5-(4-{2-isopropyl-5-[2-(2-morpholin-4-yl-ethylamino)-ethyl]-thiazol-4-yl}-phenoxy)-pentyloxy]-benzamidine] | 78 | –
